According to US7259166B2, “Substituted-cycloalkyl and oxygenated-cycloalkyl glucokinase activators” (Hoffmann-La Roche Inc., priority 2002, dated 2007):

Tests used:
C57BL/6J mice = test: Glucokinase activator in vivo screen (blood glucose after oral dosing); settings: oral gavage 50 mg/kg, two hour fast, blood glucose at 1, 2, 4 and 6 hours post dose
Protocol: Glucokinase Activator In Vivo Screen Protocol
C57BL/6J mice are orally dosed via gavage with Glucokinase (GK) activator at 50 mg/kg body weight following a two hour fasting period. Blood glucose determinations are made five times during the six hour post-dose study period.
Mice (n=6) are weighed and fasted for a two hour period prior to oral treatment.

| melting point [°C] | Compound | glucokinase activator in vivo activity when administered orally (decrease in blood glucose compared to vehicle) (C57BL/6J mice) |
| --- | --- | --- |
| 69 to 71 | O=C(Nc1nccs1)C(CC1CCCO1)c1ccc(Cl)c(Cl)c1 (stereo not shown) [Example 2, 2-(3,4-Dichloro-phenyl)-3-(tetrahydro-furan-2-yl)-N-thiazol-2-yl-propionamide] | – |
| 172.8 to 174.2 | CNC(=O)NC(=O)C(CC1CCCCO1)c1ccc(Cl)c(Cl)c1 (stereo not shown) [Example 7, 1-[2-(3,4-Dichloro-phenyl)-3-(tetrahydro-pyran-2-yl)-propionyl]-3-methyl urea] | – |
| – | CS(=O)(=O)c1ccc(C(CC2CCOCC2)C(=O)Nc2cnc(Br)cn2)cc1Cl (stereo not shown) [Example 21, N-(5-Bromo-pyrazin-2-yl)-2-(3-chloro-4-methanesulfonyl-phenyl)-3-(tetrahydro-pyran-4-yl)-propionamide] | excellent glucokinase activator in vivo activity |
| 137.2 to 140.5 | CS(=O)(=O)c1ccc(C(CC2CCOCC2)C(=O)Nc2cnc(/C(N)=N/O)cn2)cc1Cl (stereo not shown) [Example 23] | excellent glucokinase activator in vivo activity |
| 62 to 64 | CNC(=O)NC(=O)C(CC1CCCC1O)c1ccc(Cl)c(Cl)c1 (stereo not shown) [Example 24, 1-[2-(3,4-Dichloro-phenyl)-3-(2-hydroxy-cyclopentyl)-propionyl]-3-methyl-urea] | – |
| 86 to 88 | O=C(Nc1nccs1)C(CC1CCCC1O)c1ccc(Cl)c(Cl)c1 (stereo not shown) [Example 25, 2-(3,4-Dichloro-phenyl)-3-(2-hydroxy-cyclopentyl)-N-thiazol-2-yl-propionamide] | – |
| 205 to 206 | CS(=O)(=O)c1ccc(C(CC2CCCC2O)C(=O)Nc2nccs2)cc1 (stereo not shown) [Example 26, 3-(2-Hydroxy-cyclopentyl)-2-(4-methanesulfonyl-phenyl)-N-thiazol-2-yl-propionamide] | – |
| 63 to 65 | CNC(=O)NC(=O)C(CC1CCCC1=O)c1ccc(Cl)c(Cl)c1 (stereo not shown) [Example 27, 1-[2-(3,4-Dichloro-phenyl)-3-(2-oxo-cyclopentyl)-propionyl]-3-methyl-urea] | – |
| 79 to 81 | O=C1CCCC1CC(C(=O)Nc1nccs1)c1ccc(Cl)c(Cl)c1 (stereo not shown) [Example 28, 2-(3,4-Dichloro-phenyl)-3-(2-oxo-cyclopentyl)-N-thiazol-2-yl-propionamide] | – |
| 228 to 230 | CS(=O)(=O)c1ccc(C(CC2CCCC2=O)C(=O)Nc2nccs2)cc1 (stereo not shown) [Example 29, 2-(4-Methanesulfonyl-phenyl)-3-(2-oxo-cyclopentyl)-N-thiazol-2-yl-propionamide] | – |
| 74 to 76 | CO/N=C1/CCCC1CC(C(=O)Nc1cnccn1)c1ccc(S(C)(=O)=O)c(Cl)c1 (stereo not shown) [Example 33, 2-(3-Chloro-4-methanesulfonyl-phenyl)-3-(2-methoxyimino-cyclopentyl)-N-pyrazin-2-yl-propionamide] | – |
| 82 to 84 | CNC(=O)NC(=O)C(CC1CCC(O)C1)c1ccc(Cl)c(Cl)c1 (stereo not shown) [Example 35, 1-[2-(3,4-Dichloro-phenyl)-3-(3-hydroxy-cyclopentyl)-propionyl]-3-methyl-urea] | – |
| 69 to 72 | CS(=O)(=O)c1ccc(C(CC2CCC(O)C2)C(=O)Nc2nccs2)cc1 (stereo not shown) [Example 37, 3-(3-Hydroxy-cyclopentyl)-2-(4-methanesulfonyl-phenyl)-N-thiazol-2-yl-propionamide] | – |
| 49 to 52 | CC(=O)OC1CCC(CC(C(=O)Nc2nccs2)c2ccc(Cl)c(Cl)c2)C1 (stereo not shown) [Example 40, Acetic acid 3-[2-(3,4-dichloro-phenyl)-2-(thiazol-2-ylcarbamoyl)-ethyl]-cyclopentyl ester] | – |
| 70 to 74 | CNC(=O)NC(=O)C(CC1CCC(=O)C1)c1ccc(Cl)c(Cl)c1 (stereo not shown) [Example 42, 1-[2-(3,4-Dichloro-phenyl)-3-(3-oxo-cyclopentyl)-propionyl]-3-methyl-urea] | – |
| 146 to 148 | O=C1CCC(CC(C(=O)Nc2nccs2)c2ccc(Cl)c(Cl)c2)C1 (stereo not shown) [Example 43, 2-(3,4-Dichloro-phenyl)-3-(3-oxo-cyclopentyl)-N-thiazol-2-yl-propionamide] | – |

| melting point [°C] | Compound | glucokinase activator in vivo activity when administered orally (decrease in blood glucose compared to vehicle) (C57BL/6J mice) |
| --- | --- | --- |
| 94 to 97 | CS(=O)(=O)c1ccc(C(CC2CCC(=O)C2)C(=O)Nc2nccs2)cc1 (stereo not shown) [Example 44, 2-(4-Methanesulfonyl-phenyl)-3-(3-oxo-cyclopentyl)-N-thiazol-2-yl-propionamide] | – |
| 97 to 103 | CS(=O)(=O)c1ccc(C(CC2CCC(=O)C2)C(=O)Nc2cnc(Br)cn2)cc1Cl (stereo not shown) [Example 49, N-(5-Bromo-pyrazin-2-yl)-2-(3-chloro-4-methanesulfonyl-phenyl)-3-(3-oxo-cyclopentyl)-propionamide] | excellent glucokinase activator in vivo activity |
| 98 to 101 | O=C(Nc1nccs1)C(CC1CC/C(=N/O)C1)c1ccc(Cl)c(Cl)c1 (stereo not shown) [Example 50, 2-(3,4-Dichloro-phenyl)-3-(3-hydroxyimino-cyclopentyl)-N-thiazol-2-yl-propionamide] | – |
| 205 to 207 | CS(=O)(=O)c1ccc(C(CC2CC/C(=N/O)C2)C(=O)Nc2cnccn2)cc1Cl (stereo not shown) [Example 51, 2-(3-Chloro-4-methanesulfonyl-phenyl)-3-(3-hydroxyimino-cyclopentyl)-N-pyrazin-2-yl-propionamide] | – |
| 100 to 106 | CS(=O)(=O)c1ccc(C(CC2CC/C(=N/O)C2)C(=O)Nc2cnc(Br)cn2)cc1Cl (stereo not shown) [Example 52, N-(5-Bromo-pyrazin-2-yl)-2-(3-chloro-4-methanesulfonyl-phenyl)-3-(3-hydroxyimino-cyclopentyl)-propionamide] | excellent glucokinase activator in vivo activity |
| 69 to 72 | CO/N=C1/CCC(CC(C(=O)Nc2nccs2)c2ccc(Cl)c(Cl)c2)C1 (stereo not shown) [Example 53, 2-(3,4-Dichloro-phenyl)-3-(3-methoxyimino-cyclopentyl)-N-thiazol-2-yl-propionamide] | – |
| 85 to 87 | CO/N=C1/CCC(CC(C(=O)Nc2cnccn2)c2ccc(S(C)(=O)=O)c(Cl)c2)C1 (stereo not shown) [Example 54, 2-(3-Chloro-4-methanesulfonyl-phenyl)-3-(3-methoxyimino-cyclopentyl)-N-pyrazin-2-yl-propionamide] | excellent glucokinase activator in vivo activity |
| 91 to 97 | CO/N=C1/CCC(CC(C(=O)Nc2cnc(Br)cn2)c2ccc(S(C)(=O)=O)c(Cl)c2)C1 (stereo not shown) [Example 55, N-(5-Bromo-pyrazin-2-yl)-2-(3-chloro-4-methanesulfonyl-phenyl)-3-(3-methoxyimino-cyclopentyl)-propionamide] | excellent glucokinase activator in vivo activity |
| 154 to 156 | O=C(Nc1nccs1)C(CC1CCC(F)(F)C1)c1ccc(Cl)c(Cl)c1 (stereo not shown) [Example 56, 2-(3,4-Dichloro-phenyl)-3-(3,3-difluoro-cyclopentyl)-N-thiazol-2-yl-propionamide] | – |
| 78 to 84 | CC1(O)CCC(CC(C(=O)Nc2cnccn2)c2ccc(S(C)(=O)=O)c(Cl)c2)C1 (stereo not shown) [Example 57, 2-(3-Chloro-4-methanesulfonyl-phenyl)-3-(3-hydroxy-3-methyl-cyclopentyl)-N-pyrazin-2-yl-propionamide] | – |
| – | CS(=O)(=O)c1ccc(C(CC2CCC(=O)CC2)C(=O)Nc2cnc(Br)cn2)cc1Cl (stereo not shown) [Example 59, N-(5-Bromo-pyrazin-2-yl)-2-(3-chloro-4-methanesulfonyl-phenyl)-3-(4-oxo-cyclohexyl)-propionamide] | excellent glucokinase activator in vivo activity |
| – | CS(=O)(=O)c1ccc([C@@H](CC2CCC(=O)CC2)C(=O)Nc2cnc(Br)cn2)cc1Cl [Example 60, N-(5-Bromo-pyrazin-2-yl)-2(R)-(3-chloro-4-methanesulfonyl-phenyl)-3-(4-oxo-cyclohexyl)-propionamide] | excellent glucokinase activator in vivo activity |
| – | CS(=O)(=O)c1ccc([C@@H](CC2CCC(=O)CC2)C(=O)Nc2cnc(Cl)cn2)cc1Cl [Example 61, 2(R)-(3-Chloro-4-methanesulfonyl-phenyl)-N-(5-chloro-pyrazin-2-yl)-3-(4-oxo-cyclohexyl)-propionamide] | excellent glucokinase activator in vivo activity |
| – | CS(=O)(=O)c1ccc(C(CC2CCC(=NO)CC2)C(=O)Nc2cnc(Br)cn2)cc1Cl (stereo not shown) [Example 66, N-(5-Bromo-pyrazin-2-yl)-2-(3-chloro-4-methanesulfonyl-phenyl)-3-(4-hydroxyimino-cyclohexyl)-propionamide] | excellent glucokinase activator in vivo activity |
| – | CS(=O)(=O)c1ccc([C@@H](CC2CCC(=NO)CC2)C(=O)Nc2cnc(Br)cn2)cc1Cl (stereo partly drawn) [Example 67, N-(5-Bromo-pyrazin-2-yl)-2(R)-(3-chloro-4-methanesulfonyl-phenyl)-3-(4-hydroxyimino-cyclohexyl)-propionamide] | excellent glucokinase activator in vivo activity |
| – | CS(=O)(=O)c1ccc([C@@H](CC2CCC(=NO)CC2)C(=O)Nc2cnc(Cl)cn2)cc1Cl (stereo partly drawn) [Example 68, 2(R)-(3-Chloro-4-methanesulfonyl-phenyl)-N-(5-chloro-pyrazin-2-yl)-3-(4-hydroxyimino-cyclohexyl)-propionamide] | excellent glucokinase activator in vivo activity |
